Source: patent EP1379634B1 (THE UNIVERSITY OF GEORGIA RESEARCH FOUNDATION, INC., priority 2001, dated 2002)
Residues, ends and D or L forms follow the SMILES beside them. *: point of attachment. AFC = O=c1cc(C(F)(F)F)c2ccc(N*)cc2o1; Cbz = O=C(OCc1ccccc1)*; CH2F = FC*

Tests used:
[1] = tested on: Taenia solium crude mix; test: Competitor assay of vehicles against high Vmax substrate cocktails (Step III), crude mix; type: biochemical
Text: Step III for a crude mix proceeds as it would for a purified protease, except that Vm is used instead of kcat.
One of the most intriguing findings in this experiment was that a highly similar inhibition pattern for the competitor assay resulted when the crude mix was employed as the source of the target protease. Although there were some variations in the effects of inhibitor dilution, the most highly ranked vehicles remained inhibitory consistently in comparison to the profile with the target protease. The relative profile and composition of the top tier of vehicles was identical. Z-LLL-AFC, Z-LLY-AFC, Mu-LY-AFC, Boc-VPR-AFC, Z-SY-AFC, Z-RR-AFC, Z-FLF-AFC, and Z-LGR-AFC consistently emerged as the top eight vehicles (Fig. 5b), respectively, based upon their V values (Table 2). […] It was notable that the three vehicles had very similar V values. […] As was mentioned, this vehicle along with Z-LLL-AFC and Z-LLY-AFC, were consistently the most inhibitory vehicles. The V values of the most inhibitory vehicle series are shown below in Table 2. Again, a clear break between the first and second tier vehicles is discernible for the V value. Table 2. Vehicles and V value rankings.

[2] = tested on: T. solium (cysteine); test: Selectivity test (Steps VI and IX), T. solium cysteine protease; type: biochemical, Taenia solium
Procedure: In order to perform the assay, the vehicle (for Step VI) or inhibitor (for Step IX) were incubated with the appropriate substrate in the correct assay buffer and allowed to equilibrate. Subsequently, the protease was added, and the assay was allowed to incubate for an appropriate time. The concentrations used in this experiment were as follows: Vehicle was set up at 4 X 10^-5 M in final assay buffer; Inhibitor was set up at 3 X 10^-10 M in the final assay buffer. Preferably the dosages employed should be the minimal amount of vehicle or inhibitor necessary to induce inhibition. […] Substrates were set up based upon the preferred substrate for cleavage of the particular enzyme.
Positive controls were set up similarly as described for test controls, except that a solvent blank was added in substitution for the inhibitor or vehicle (in a volume equal to the volume of inhibitor or vehicle addition). All of the inhibitors and vehicles could be dissolved in dimethylsulfoxide (DMSO), and therefore, this was the solvent of choice. Negative controls were set up by adding the inhibitor or vehicle and the preferred substrates in a tube without the protease. All potential non-proteolytic liberation of AFC was therefore controlled for in this tube.
All controls were set up in triplicate, and experiments were repeated a minimum of five times.
Percent inhibition was calculated as: %Inhibition = ((AFC positive for "SI"−AFC negative for "SI")−(AFC test−AFC negative for "SI"))/(AFC positive for "SI"−AFC negative for "SI") × 100 [formula]
In this preliminary test, we employed the following human-derived enzymes (with indicated mechanistic class in parentheses): Cathepsin B (cysteine), Cathepsin L (cysteine), Cathepsin H (cysteine), Cathepsin D (aspartic), Trypsin (serine), the purified Taenia solium cysteine protease, and the Taenia solium crude mix. Cathepsin B was prepared in an assay buffer of 10 mM L-cysteine in 0.4 M Citrate buffer, pH 6.1, using Z-ARR-AFC as the cleavage substrate. Cathepsin L was prepared in an assay buffer of 10 mM L-cysteine in 0.4 M Citrate buffer, pH 5.5, using Z-FR-AFC as the cleavage substrate. Cathepsin H was prepared in an assay buffer of 10 mM L-cysteine in 0.15 M PBS buffer, pH 6.8, using L-R-AFC as the cleavage substrate. Cathepsin D was prepared in an assay buffer of 0.15 M PBS, pH 7.1, using Z-RGFFP-AFC as the cleavage substrate. Trypsin was prepared in an assay buffer of 0.15 M PBS, pH 8.0, supplemented with 100 mM CaCl2 and with Z-R-AFC as the cleavage substrate. Enzyme was incubated so that it was at least 50 times less than the concentration of substrate in order to insure saturating conditions.

[3] = tested on: purified Taenia solium cysteine protease; test: Substrate cleavage screen of AFC-linked peptides (Step II), purified protease; type: biochemical; settings: 0.4 M Citrate, pH 4.9, 0.01 M cysteine, 18 h, 37 °C
Procedure: In this step, the most efficacious substrate for detection of the cysteine protease (high Kcat substrate) was determined in vitro along with those substrates which were not well cleaved (low kcat substrates). From this point forward, the following conditions refer to all assays: "assay buffer" refers to 0.4 M Citrate, pH 4.9 (the pH optima of the protease). Incubation time was 18 hours at 37°C. These conditions were determined by our preliminary data to be best for kinetic evaluation of the protease. […] The experiments were conducted in 6X50 […] Borosilicate mini-culture tubes (Fisher Scientific), and a fluorometer (Turner) was employed for detection of AFC cleavage.
Since the full 8,420 amino acid possibilities for cleavage were not available, representative substrates were employed. […] In order to choose this subset, representative amino acids (i.e., selected from the categories of acidic, basic, nonpolar, uncharged) were chosen so as to create as many categories of motifs as feasible for the P3-P1 positions with a set of 67 small peptides (see lists at Fig. 4a and Fig. 4b). The target cysteine protease from Taenia solium was isolated using the purification methods described previously in the patent WO 00/63350.
Approximately 1 ug (or a proteolytically detectable amount) of the purified target cysteine protease was incubated individually, with 1 ug of each of the available substrates in 500 uL of assay buffer. During this setup, the substrate was pre-incubated in the assay buffer for a short period of time (20 minutes) in order to reach an equilibrated status before the addition of the protease. Cleavage assessments were based upon the property of the protease to cleave synthetic peptide substrates linked at the C-terminus to 7-Amino-4-Trifluoromethyl Coumarin (AFC) as previously described. AFC linked tripeptides, dipeptides, and monopeptides, (with a variety of permutations at P3-P1) were available from Enzyme Systems Products (Livermore, CA), and were used as the source of the subset. Following incubation of enzyme preparations overnight (18 h, 37 °C) with peptide in assay buffer (Citrate, pH 4.9, supplemented with 0.01 M cysteine), free AFC concentrations were measured fluorometrically (excitation 405 nm, emission 505 nm). The proteolytic cleavage released the AFC group, which was measurable as a free molecule by a standard fluorometer and converted into molar quantities, based upon a previously established standard curve. The simplicity of AFC detection by the fluorometer was a key factor which expedited and simplified the procedures.
In the assay, 1 ug of the purified Taenia cysteine protease was added to a saturating amount of Z-Phe-Arg-AFC (4X10^-5 M) in assay buffer. The experiment was conducted in triplicate and repeated at least 5 times until we were certain that variability in AFC cleavage was not statistically significant.
Vmax for the cleavage of substrates by the purified target protease and Vmax for substrates cleaved by the crude mix protease were each calculated using conventional kinetic modeling calculations already described in the art.

Compound: CC(C)C[C@H](NC(=O)OCc1ccccc1)C(=O)N[C@@H](CC(C)C)C(=O)N[C@@H](CC(C)C)C(=O)Nc1ccc2c(C(F)(F)F)cc(=O)oc2c1 [Z-LLL-AFC, Z-Leu-Leu-Leu-AFC] (Cbz-Leu-Leu-Leu-{AFC})
- Tier [1]: 1 (The first tier was composed of those vehicles that produced inhibition greater than 50% when in the presence of the 1.4% cocktail)
- % inhibition ([2]; vehicle 4 X 10^-5 M): 68%
- cleavage of AFC substrate (Vmax) [3]: noncleavable

Compound: CC(C)C[C@H](NC(=O)OCc1ccccc1)C(=O)N[C@@H](CC(C)C)C(=O)N[C@@H](Cc1ccc(O)cc1)C(=O)Nc1ccc2c(C(F)(F)F)cc(=O)oc2c1 [Z-LLY-AFC, Z-Leu-Leu-Tyr-AFC] (Cbz-Leu-Leu-Tyr-{AFC})
- Tier [1]: 1 (The first tier was composed of those vehicles that produced inhibition greater than 50% when in the presence of the 1.4% cocktail)
- % inhibition ([2]; vehicle 4 X 10^-5 M): 70%
- cleavage of AFC substrate (Vmax) [3]: noncleavable

Compound: CC(C)C[C@H](NC(=O)OCc1ccccc1)C(=O)N[C@@H](CC(C)C)C(=O)N[C@@H](Cc1ccc(O)cc1)C(=O)CF [Z-LLY-FMK, Z-Leu-Leu-Tyr-FMK] (Cbz-Leu-Leu-Tyr-CH2F)
- % inhibition ([2]; inhibitor 3 X 10^-10 M): 62%

Compound: Mu-Leu-Tyr-AFC [Mu-LY-AFC]
- Tier [1]: 1 (The first tier was composed of those vehicles that produced inhibition greater than 50% when in the presence of the 1.4% cocktail)
- % inhibition ([2]; vehicle 4 X 10^-5 M): 75%
- cleavage of AFC substrate (Vmax) [3]: not cleaved
- cleavage of AFC substrate (Vmax) ([3]; listed as M-LY-AFC): noncleavable
